Measurements reported in ChEMBL document CHEMBL4033684, “Development of nonsteroidal glucocorticoid receptor modulators based on N-benzyl-N-(4-phenoxyphenyl)benzenesulfonamide scaffold” (Bioorg Med Chem, 2017).
The source made the active and inactive calls. The rule behind the calls is not given here.

Key:
Format in all cases: cell-based
Glucocorticoid receptor [1] = molecular target: T1, Glucocorticoid receptor (Homo sapiens, UniProt P04150); experiment: (§1) Antagonist activity at human GRalpha expressed in HEK293 cells assessed as inhibition of dexamethasone-induced response after 24 hrs by luciferase reporter gene assay
T1 sequence (P04150 whole entry): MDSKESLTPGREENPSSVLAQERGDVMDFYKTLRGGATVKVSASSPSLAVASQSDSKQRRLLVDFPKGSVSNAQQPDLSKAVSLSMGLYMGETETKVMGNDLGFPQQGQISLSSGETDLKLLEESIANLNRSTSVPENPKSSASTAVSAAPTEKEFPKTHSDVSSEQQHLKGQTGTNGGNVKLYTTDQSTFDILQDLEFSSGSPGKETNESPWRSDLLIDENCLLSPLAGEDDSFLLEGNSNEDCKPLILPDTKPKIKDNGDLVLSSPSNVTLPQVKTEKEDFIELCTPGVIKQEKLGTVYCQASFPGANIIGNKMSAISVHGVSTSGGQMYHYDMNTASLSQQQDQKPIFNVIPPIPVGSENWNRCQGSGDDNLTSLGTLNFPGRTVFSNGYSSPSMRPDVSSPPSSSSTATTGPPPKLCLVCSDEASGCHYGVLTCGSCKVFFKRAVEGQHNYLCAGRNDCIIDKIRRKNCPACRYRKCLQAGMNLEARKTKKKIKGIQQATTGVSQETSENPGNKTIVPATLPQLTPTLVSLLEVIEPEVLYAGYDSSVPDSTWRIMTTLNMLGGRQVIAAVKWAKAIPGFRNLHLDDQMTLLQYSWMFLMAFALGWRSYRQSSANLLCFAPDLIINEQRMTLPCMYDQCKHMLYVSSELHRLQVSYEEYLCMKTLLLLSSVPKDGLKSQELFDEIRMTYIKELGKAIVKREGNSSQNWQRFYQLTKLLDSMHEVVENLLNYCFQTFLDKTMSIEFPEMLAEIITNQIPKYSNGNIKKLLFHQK

Glucocorticoid receptor [2] = molecular target: T1, Glucocorticoid receptor; experiment: Transactivation of human GRalpha expressed in HEK293 cells after 24 hrs by luciferase reporter gene assay; conditions: hek293, 24 h
[3] = molecular target: T2, Glucocorticoid receptor (Homo sapiens) (UniProt P04150); experiment: Antagonist activity at human GRalpha expressed in HEK293 cells assessed as inhibition of dexamethasone-induced response at 30 uM after 24 hrs by luciferase reporter gene assay relative to control
T2 sequence (whole entry): T1 sequence (P04150 whole entry)

[4] = molecular target: T2, Glucocorticoid receptor (Homo sapiens); experiment: Transrepression of human GRalpha expressed in HEK293 cells co-expressing pGL4.32 assessed as inhibition of TNFalpha-stimulated NF-kB activity at 30 uM preincubated for 4 hrs followed by TNFalpha addition measured after 3 hrs by luciferase reporter gene assay relative to control
[5] = molecular target: T2, Glucocorticoid receptor (Homo sapiens); experiment: as §1

Row | Compound | IC50 (Glucocorticoid receptor [1]) | Activity (Glucocorticoid receptor [2]) | inhibition [3] | inhibition [4] | inhibition [5]
1 | O=S(=O)(c1ccc(OC(F)(F)F)cc1)N(Cc1ccccc1)c1ccc(Oc2ccccc2)cc1 | 7.48 µM | Not Active |  |  | 
2 | O=S(=O)(c1ccc(Cl)cc1)N(Cc1ccccc1)c1ccc(Oc2ccccc2)cc1 | 2.4 µM | Not Active |  |  | 
3 | N#Cc1ccc(S(=O)(=O)N(CCCc2ccccc2)c2ccc(Oc3ccccc3)cc2)cc1 | > 30 µM | Not Active | < 50% |  | 
4 | N#Cc1ccc(S(=O)(=O)N(CCc2ccccc2)c2ccc(Oc3ccccc3)cc2)cc1 | > 30 µM | Not Active | < 50% |  | 
5 | CC(C)(C)c1ccc(CN(c2ccc(Oc3ccccc3)cc2)S(=O)(=O)c2ccc(C#N)cc2)cc1 |  | Not Active | inactive |  | 
6 | CNc1ccc(S(=O)(=O)N(Cc2ccccc2)c2ccc(Oc3ccccc3)cc2)cc1 |  | Not Active |  | inactive | 
7 | COc1cccc(C(=O)Nc2ccc(Oc3ccc(O)cc3)c(C)c2)c1 |  | Not Active |  |  | inactive
8 | O=S(=O)(c1ccccc1)N(Cc1ccccc1)c1ccc(Oc2ccccc2)cc1 | 3.59 µM | Not Active |  |  | 
9 | N#Cc1ccc(S(=O)(=O)N(Cc2ccc(F)cc2)c2ccc(Oc3ccccc3)cc2)cc1 | > 30 µM | Not Active | < 50% |  | 
10 | CCN(CC)c1ccc(S(=O)(=O)N(Cc2ccccc2)c2ccc(Oc3ccccc3)cc2)cc1 |  | Not Active |  | inactive | 
11 | N#Cc1ccc(S(=O)(=O)N(Cc2ccccc2Cl)c2ccc(Oc3ccccc3)cc2)cc1 | > 30 µM | Not Active |  |  | 
12 | O=S(=O)(c1ccc(C(F)(F)F)cc1)N(Cc1ccccc1)c1ccc(Oc2ccccc2)cc1 | > 30 µM | Not Active | < 50% |  | 
13 | N#Cc1ccccc1S(=O)(=O)N(Cc1ccccc1)c1ccc(Oc2ccccc2)cc1 | > 30 µM | Not Active | < 50% |  | 
14 | COc1ccc(Oc2ccc(N(Cc3ccccc3)S(=O)(=O)c3ccc(C#N)cc3)cc2)cc1 | > 30 µM | Not Active | < 50% |  | 
15 | COc1cccc(Oc2ccc(N(Cc3ccccc3)S(=O)(=O)c3ccc(C#N)cc3)cc2)c1 |  | Not Active | inactive |  | 
16 | Nc1cccc(S(=O)(=O)N(Cc2ccccc2)c2ccc(Oc3ccccc3)cc2)c1 |  | Not Active |  | 39% | 
17 | N#Cc1ccc(S(=O)(=O)N(Cc2ccc3ccccc3c2)c2ccc(Oc3ccccc3)cc2)cc1 | > 30 µM | Not Active | < 50% |  | 
18 | Cc1ccc(S(=O)(=O)N(Cc2ccccc2)c2ccc(Oc3ccccc3)cc2)cc1 | 2.02 µM | Not Active |  |  | 
19 | O=S(=O)(c1ccc(S(F)(F)(F)(F)F)cc1)N(Cc1ccccc1)c1ccc(Oc2ccccc2)cc1 | > 30 µM | Not Active | < 50% |  | 
20 | O=S(=O)(c1ccc(Br)cc1)N(Cc1ccccc1)c1ccc(Oc2ccccc2)cc1 | > 30 µM | Not Active | < 50% |  | 

Row | Compound | IC50 (Glucocorticoid receptor [1]) | Activity (Glucocorticoid receptor [2]) | inhibition [3] | inhibition [4] | inhibition [5]
21 | COc1ccc(CN(c2ccc(Oc3ccccc3)cc2)S(=O)(=O)c2ccc(C#N)cc2)cc1 |  | Not Active | inactive |  | 
22 | CN(C)c1ccc(S(=O)(=O)N(Cc2ccccc2)c2ccc(Oc3ccccc3)cc2)cc1 |  | Not Active |  | inactive | 
23 | N#Cc1cccc(S(=O)(=O)N(Cc2ccccc2)c2ccc(Oc3ccccc3)cc2)c1 |  | Not Active | inactive |  | 
24 | Nc1ccccc1S(=O)(=O)N(Cc1ccccc1)c1ccc(Oc2ccccc2)cc1 |  | Not Active |  | 46% | 
25 | Cc1ccc(CN(c2ccc(Oc3ccccc3)cc2)S(=O)(=O)c2ccc(C#N)cc2)cc1 | > 30 µM | Not Active | < 50% |  | 
26 | N#Cc1ccc(S(=O)(=O)N(Cc2cccc3ccccc23)c2ccc(Oc3ccccc3)cc2)cc1 | > 30 µM | Not Active | < 50% |  | 
27 | N#Cc1ccc(S(=O)(=O)N(CC2CC2)c2ccc(Oc3ccccc3)cc2)cc1 |  | Not Active | inactive |  | 
28 | O=[N+]([O-])c1ccc(S(=O)(=O)N(Cc2ccccc2)c2ccc(Oc3ccccc3)cc2)cc1 | 5.77 µM | Not Active |  |  | 
29 | Nc1ccc(S(=O)(=O)N(Cc2ccccc2)c2ccc(Oc3ccccc3)cc2)cc1 | 3.15 µM | Not Active |  | 64% | 
30 | CCNc1ccc(S(=O)(=O)N(Cc2ccccc2)c2ccc(Oc3ccccc3)cc2)cc1 |  | Not Active |  | inactive | 
31 | N#Cc1ccc(S(=O)(=O)N(Cc2ccc(Br)cc2)c2ccc(Oc3ccccc3)cc2)cc1 | 7.87 µM | Not Active |  |  | 
32 | CC(C)(C)c1ccc(S(=O)(=O)N(Cc2ccccc2)c2ccc(Oc3ccccc3)cc2)cc1 | > 30 µM | Not Active | < 50% |  | 
33 | N#Cc1ccc(S(=O)(=O)N(Cc2ccc(Cl)cc2)c2ccc(Oc3ccccc3)cc2)cc1 | > 30 µM | Not Active | < 50% |  | 
34 | CC(=O)Nc1ccc(S(=O)(=O)N(Cc2ccccc2)c2ccc(Oc3ccccc3)cc2)cc1 | 1.97 µM | Not Active |  | 60% | 
35 | O=S(=O)(c1ccc(F)cc1)N(Cc1ccccc1)c1ccc(Oc2ccccc2)cc1 | 2.04 µM | Not Active |  |  | 
36 | COc1ccc(S(=O)(=O)N(Cc2ccccc2)c2ccc(Oc3ccccc3)cc2)cc1 | 1.87 µM | Not Active |  |  | 
37 | COc1ccccc1Oc1ccc(N(Cc2ccccc2)S(=O)(=O)c2ccc(C#N)cc2)cc1 |  | Not Active | inactive |  | 
38 | N#Cc1ccc(S(=O)(=O)N(Cc2cccc(Cl)c2)c2ccc(Oc3ccccc3)cc2)cc1 | 5.42 µM | Not Active |  |  | 
39 | COC(=O)Nc1ccc(S(=O)(=O)N(Cc2ccccc2)c2ccc(Oc3ccccc3)cc2)cc1 | 2.11 µM | Not Active |  | 32% | 
40 | O=S(=O)(Nc1ccc(Oc2ccccc2)cc1)c1cccc(C(F)(F)F)c1 | 11.7 µM | Not Active |  |  | 
